Here are results for one compound from patent US10265329B2, “Altering steroid metabolism for treatment of steroid-dependent disease” (THE CLEVELAND CLINIC FOUNDATION, priority 2015, dated 2019).

Series [1] has as its target T1, human 3βHSD1 (Homo sapiens, UniProt P14060).
T1 construct: made in house; host or cells: yeast (microsomes)
Put plainly: Recombinant 3βHSD1 enzyme assay, [3H]-pregnenolone metabolism (Lineweaver-Burk). The series is classed as biochemical. Conditions: pregnenolone substrate; D4A 5-20 μmol/L. The method, then: To test D4A as an inhibitor of 3βHSD, enzyme assays were performed as described previously. Li et al., Clin Cancer Res. 18:3571-3579 (2012). Briefly, incubations were prepared with recombinant human 3βHSD1 or 3βHSD2 (in yeast microsomes, 45 or 2.5 μg protein per incubation, respectively), [^3H]-pregnenolone (100,000 cpm, 1-20 μmol/L), and D4A (5-20 μmol/L) or ethanol vehicle in 0.5 mL of potassium phosphate buffer (pH 7.4). After a pre-incubation at 37° C. for 1 to 3 min, NAD (1 mmol/L) was added, and the incubation was conducted at 37° C. for 20 min. The reaction was stopped by addition of 1 mL ethyl acetate:isooctane (1:1), and the steroids were then extracted into the organic phase and dried. The steroids in the dried extracts were resolved by HPLC and quantitated by in-line scintillation counting

Series [2] concerns AR chromatin occupancy on PSA, TMPRSS2 and FKBP5 regulatory elements. Put plainly: AR chromatin occupancy ChIP assay in LNCaP cells. Format: cell-based, human. To be noted: 3 h. The method, then: LNCaP cells were serum-starved for at least 48 h and treated with indicated drugs and DHT for 3 h. A ChIP assay was performed with an anti-AR antibody (Santa Cruz, sc-816) as described previously. Li et al., Proc Natl Acad Sci USA. 108:3116-3123 (2011). All of the precipitated DNA samples were quantified by qPCR and normalized to input DNA. All ChIP experiments were performed at least three times. Primers used for ChIP experiments are from experiments previously described. Evaul et al., Endocrinology, 151:3514-3520 (2010).

Series [3] deals with PSA, TMPRSS2 and FKBP5 expression. Description: Inhibition of androgen-responsive gene expression (qPCR). Format: cell-based, human. The method, then:
Cells were starved with phenol red-free and serum free-medium for at least 48 h and treated with the indicated drugs and/or androgens. RNA was extracted with a GenElute Mammalian Total RNA miniprep kit (Sigma-Aldrich). cDNA was synthesized from 1 μg RNA in a reverse transcription reaction using the iScript cDNA Synthesis Kit (Bio-Rad, Hercules, Calif.). Quantitative PCR (qPCR) analysis was conducted in triplicate with primers for PSA, TMPRSS2, FKBP5, and RPLPO described previously (Chang et al., Cell, 154:1074-1084 (2013), with an ABI 7500 Real-Time PCR machine (Applied Biosystems) using iTaq Fast SYBR Green Supermix with ROX (Bio-Rad) in 96-well plates at a final reaction volume of 20 μL. Accurate quantitation of each mRNA was achieved by normalizing the sample values to RPLPO and to vehicle-treated cells.
On the technique in general: Real-time PCR tracks product formation cycle by cycle.

The subject of series [4] is LNCaP cells. Put plainly: Cell proliferation assay, DHT-stimulated growth. Format: cell-based, human. Conditions: DHT 0.5 nM, 2, 4 and 6 days. As for the experimental part:
LNCaP cells (0.1 million/mL) were seeded in 96-well plates and cultured in phenol red free RPMI-1640 mediums plus 10% charcoal stripped FBS with androgens and/or drugs. Medium was changed every other day. After 2, 4 or 6 days, cells were collected and lysed after treatment. Growth was then determined based on DNA content as detected by Hoechst stain and a Wallac Victor2 1420 Multilabel counter (Perkin Elmer). Two-tailed student's t-test was used to determine significance.

Series [5] in a line: Abi metabolites in sera of patients with CRPC treated with Abi acetate. Format: in vivo, human. Conditions: patients undergoing treatment with Abi acetate. As for the experimental part: Patient serum collection and drug extraction. Twelve patients with CRPC undergoing treatment with Abi acetate were consented under an Institutional Review Board—approved protocol (Case 7813). Blood was collected using Vacutainer Plus serum blood collection tubes (#BD367814, Becton Dickenson, Franklin Lakes, N.J.). Blood was collected between 2 and 14 hours after the 1000 mg daily dose of Abi acetate was administered. Blood was allowed to clot and tubes were centrifuged at 2500 RPM for 10 minutes. Serum aliquots were frozen at −80° C. until processing. Drug metabolites and internal standard (d4-cortisol, CDN isotopes Pointe-Claire, Quebec Canada) were extracted from 200 μL of patient serum with methyl tert-butyl ether (Sigma Aldrich, St. Louis, Mo.), evaporated under a stream of nitrogen gas and reconstituted in methanol prior to mass spectrometry analysis.
Patient serum analysis. Blood was obtained from prostate cancer patients with consent under a protocol approved by the Cleveland Clinic Institutional Review Board. Samples were analyzed on a ultra high-performance liquid chromatography station (Shimadzu, Kyoto, Japan) with a DGU-20A3R degasser, 2 LC-30AD pumps, a SIL-30AC autosampler, a CTO-10A column oven and a CBM-20A system controller in tandem with a QTRAP 5500 mass spectrometer (AB Sciex, Framingham, Mass.). […]

“Also recorded” adds a separate entry of the source.

T1 sequence (P14060 whole entry): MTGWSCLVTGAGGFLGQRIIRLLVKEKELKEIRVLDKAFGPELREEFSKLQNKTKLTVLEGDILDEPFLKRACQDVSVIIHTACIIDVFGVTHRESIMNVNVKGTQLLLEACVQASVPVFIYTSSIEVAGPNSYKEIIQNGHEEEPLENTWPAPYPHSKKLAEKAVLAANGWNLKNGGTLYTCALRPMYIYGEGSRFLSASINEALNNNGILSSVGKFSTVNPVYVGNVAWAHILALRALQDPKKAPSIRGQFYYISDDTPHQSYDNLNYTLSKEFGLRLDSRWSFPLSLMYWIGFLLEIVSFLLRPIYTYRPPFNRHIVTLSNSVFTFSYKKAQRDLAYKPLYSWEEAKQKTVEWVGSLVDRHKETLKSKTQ

Consider `C[C@]12CCC(=O)C=C1CC[C@@H]1[C@@H]2CC[C@]2(C)C(c3cccnc3)=CC[C@@H]12` [Compound D4A, 17-(3-Pyridyl)androsta-4,16-dien-3-one], for which the “type of inhibition of 3βHSD1” value in series [1] is “mixed competitive-noncompetitive inhibition; also recorded: mixed inhibition kinetics”. For the same compound, in series [2], the “inhibition of DHT-induced AR chromatin occupancy” value is “superior to Abi and somewhat lower than enzalutamide”. Moreover, the “suppression of PSA, TMPRSS2 and FKBP5 expression compared to Abi” value in series [3] (induced by DHT, DHEA and R1881, LNCAP, LAPC4 and C4-2 cell lines) is reported as “clearly better suppresses”. Besides, the “inhibition of DHT-induced endogenous PSA expression” value in series [3] (mutant and wild-type AR (LNCaP and LAPC4)) was “equivalent to enzalutamide”. For the same compound, the “effect on DHT-stimulated cell growth” value in series [4] is “more potent than Abi”. Moreover, the “detection in sera of patients with CRPC” value in series [5] is given as “detectable”.
